Reference: PubChem BioAssay (NCI)
“And” between values parts separate entries of the source, which are not always exact repeats. Equal values may be shown once.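 Each compound was tested at five concentrations against cells in 96-well plates for 48 hours. Abbreviation: GI50, concentration required for 50% inhibition of growth. At the TGI there is no net growth.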

Columns and labels:
Assay in all cases: NCI-60 cell line screen, 48 h
[1] = test system: 786-0 renal
[2] = test system: SK-MEL-5 melanoma
[3] = test system: NCI/ADR-RES ovarian
[4] = test system: SF-539 CNS
[5] = test system: HCT-15 colon
[6] = test system: SR leukemia
[7] = test system: UACC-62 melanoma
[8] = test system: HCT-116 colon
[9] = test system: SNB-75 CNS
[10] = test system: SN12C renal

Work on N=C1C(c2nc(-c3ccc(Br)cc3)cs2)=C(O)CN1Cc1cccnc1 yielded a GI50 [1] of 15.3 µM, a TGI [1] of 34.3 µM and a GI50 [2] of 4.35 µM. The TGI [2] was 32.5 µM, the GI50 [3] was 16.3 µM and the TGI [3] was > 100 µM. The GI50 [4] was 15.5 µM, the TGI [4] was 84.8 µM and the GI50 [5] was 24.4 µM. For the same compound, the TGI [5] was > 100 µM, the GI50 [6] was 17.3 µM and the TGI [6] was 67.2 µM. The GI50 [7] was 6.92 µM, the TGI [7] was 30.6 µM and the GI50 [8] was 1.75 µM. For the same compound, the TGI [8] was 24 µM, the TGI [9] was 22.9 µM and the GI50 [10] was 26.8 µM. For the same compound, the TGI [10] was > 100 µM.

With C=C1CC2(OC1=O)C(=O)N(CCCCCCCN1C(=O)C3(CC(=C)C(=O)O3)c3ccccc31)c1ccccc12 (stereo not drawn) the GI50 [1] was 1.49 µM, the TGI [1] was 5.42 µM and the GI50 [2] was 7.11 µM. It also gave a TGI [2] of 13.7 µM, a GI50 [3] of 1.68 µM and a TGI [3] of 8.78 µM. For the same compound, the GI50 [4] was 1.26 µM, the TGI [4] was 4.27 µM and the GI50 [5] was 1.3 µM. It also gave a TGI [5] of 4.61 µM, a GI50 [6] of 0.475 µM and a TGI [6] of 3.58 µM. It also gave a GI50 [7] of 1.27 µM, a TGI [7] of 4.82 µM and a GI50 [8] of 1.49 µM. The TGI [8] was 5.07 µM, the GI50 [9] was 6.35 µM and the TGI [9] was 19.5 µM. For the same compound, the GI50 [10] was 1.08 µM and the TGI [10] was 2.72 µM.

C=C1C(=O)O[C@H]2[C@H]1CC/C(COC(=O)c1cc3cc(F)ccc3[nH]1)=C\CC[C@@]1(C)O[C@@H]21 showed a GI50 [1] of 1.78 µM, a TGI [1] of 3.75 µM and a GI50 [2] of 1.85 µM. It also gave a TGI [2] of 3.84 µM, a GI50 [3] of 1.98 µM and a TGI [3] of 5.39 µM. The GI50 [4] was 1.55 µM, the TGI [4] was 3.19 µM and the GI50 [5] was 1.15 µM. The TGI [5] was 3.34 µM, the GI50 [6] was 2.03 µM and the TGI [6] was 17.6 µM. The GI50 [7] was 1.89 µM, the TGI [7] was 3.79 µM and the GI50 [8] was 1.5 µM. For the same compound, the TGI [8] was 2.96 µM, the GI50 [9] was 11.1 µM and the TGI [9] was 23.9 µM. The GI50 [10] was 1.85 µM and the TGI [10] was 3.92 µM.

For N#Cc1c(-c2nc3ccccc3s2)c(=O)oc2cc(O)ccc12, the TGI [1] was > 100 µM, the TGI [2] was 69.8 µM and the TGI [3] was > 100 µM. For the same compound, the TGI [4] was > 100 µM, the TGI [5] was > 100 µM and the TGI [6] was > 100 µM. For the same compound, the TGI [7] was > 100 µM, the TGI [8] was > 100 µM and the TGI [9] was > 100 µM. For the same compound, the TGI [10] was > 100 µM.

Work on O=C(Nc1ccc(N2CCNCC2)cc1)c1[nH]ncc1Nc1ncnc2sc3c(c12)CCC3 yielded a GI50 [1] of 0.254 µM, a TGI [1] of 1.52 µM and a GI50 [2] of 0.381 µM. The TGI [2] was 1.79 µM, the GI50 [3] was 1.48 µM and the TGI [3] was 3.7 µM. For the same compound, the GI50 [4] was 0.399 µM, the TGI [4] was 1.81 µM and the GI50 [5] was 0.224 µM. It also gave a TGI [5] of 1.29 µM, a GI50 [6] of 0.0638 µM and a GI50 [7] of 1.07 µM. The TGI [7] was 2.31 µM, the GI50 [8] was 0.109 µM and the TGI [8] was 0.297 µM. It also gave a GI50 [9] of 0.0657 µM, a TGI [9] of 1.59 µM and a GI50 [10] of 0.412 µM. It also gave a TGI [10] of 1.84 µM.

For O=P(O)(CCP(=O)(O)c1ccccc1)c1ccccc1, the TGI [1] was > 100 µM, the TGI [2] was > 100 µM and the TGI [3] was > 100 µM. The TGI [4] was > 100 µM, the TGI [5] was > 100 µM and the TGI [6] was > 100 µM. The TGI [7] was > 100 µM, the TGI [8] was > 100 µM and the TGI [9] was > 100 µM. For the same compound, the TGI [10] was > 100 µM.

CC(=O)Nc1ccc2c(c1)c(C1=C(c3cn(C)c4ccccc34)C(=O)NC1=O)cn2C was tested, and the GI50 [1] was 1.28 µM, the TGI [1] was > 25 µM and the GI50 [2] was 1.45 µM. The TGI [2] was > 25 µM, the GI50 [3] was 1.58 µM and the TGI [3] was > 25 µM. For the same compound, the GI50 [4] was 0.671 µM, the TGI [4] was 1.97 µM and the GI50 [5] was 1.02 µM. The TGI [5] was > 25 µM, the GI50 [6] was 0.675 µM and the TGI [6] was > 17 µM. For the same compound, the GI50 [7] was 1.15 µM, the TGI [7] was > 25 µM and the GI50 [8] was 1.09 µM. The TGI [8] was > 25 µM, the GI50 [9] was 0.465 µM and the TGI [9] was > 6.67 µM. For the same compound, the GI50 [10] was 1.66 µM and the TGI [10] was > 25 µM.

COc1ccc2c(c1)/C(=C\c1c(C)nc3sc(C)cn13)C(=O)N2C was tested, and the GI50 [1] was 8.92 µM, the TGI [1] was > 100 µM and the GI50 [2] was 2.15 µM. The TGI [2] was 5.49 µM, the GI50 [3] was 1.32 µM and the TGI [3] was 4.04 µM. The GI50 [4] was 1.91 µM, the TGI [4] was 6.63 µM and the GI50 [5] was 2.73 µM. The TGI [5] was 40.3 µM, the GI50 [6] was 0.345 µM and the TGI [6] was > 100 µM. It also gave a GI50 [7] of 1.69 µM, a TGI [7] of 10 µM and a GI50 [8] of 6 µM. For the same compound, the TGI [8] was > 100 µM, the GI50 [9] was 5.88 µM and the TGI [9] was 51.2 µM. It also gave a GI50 [10] of 4.7 µM and a TGI [10] of 32.3 µM.

With Cc1ncc(CN=Cc2ccc(Cl)cc2)c(N)n1 the TGI [1] was > 100 µM, the TGI [2] was > 100 µM and the TGI [3] was > 100 µM. For the same compound, the TGI [4] was > 100 µM, the TGI [5] was > 100 µM and the TGI [6] was > 100 µM. The TGI [7] was > 100 µM, the TGI [8] was > 100 µM and the TGI [9] was > 100 µM. For the same compound, the TGI [10] was > 100 µM.

For CNc1ccc2nc3ccc(=[N+](C)C)cc-3sc2c1, the GI50 [1] was 3.84 µM and 1.27 µM, the TGI [1] was 17.6 µM and 16 µM and the GI50 [2] was 0.212 µM and 0.263 µM. For the same compound, the TGI [2] was 0.99 µM and 0.875 µM, the GI50 [3] was 0.389 µM and 0.298 µM and the TGI [3] was 9.17 µM and 7.58 µM. The GI50 [4] was 0.383 µM and 0.278 µM, the TGI [4] was 2.65 µM and 1.73 µM and the GI50 [5] was 1.57 µM and 0.424 µM. The TGI [5] was 18.2 µM and 16.5 µM, the GI50 [6] was 0.635 µM and 2.22 µM and the TGI [6] was 12.1 µM and > 100 µM. The GI50 [7] was 0.799 µM and 1.1 µM, the TGI [7] was 2.86 µM and 3.6 µM and the GI50 [8] was 0.304 µM and 0.246 µM. The TGI [8] was 8.7 µM and 1.47 µM, the GI50 [9] was 1.89 µM and 1.34 µM and the TGI [9] was 7.36 µM and 7.14 µM. For the same compound, the GI50 [10] was 1.08 µM and 0.466 µM and the TGI [10] was 3.31 µM and 4.16 µM.

CN(C)c1cccc2c(S(=O)(=O)N[C@H]3CC[C@H]4[C@@H]5CCc6cc(O)ccc6[C@H]5CC[C@]34C)cccc12 showed a GI50 [1] of 3.18 µM, a TGI [1] of 9.78 µM and a GI50 [2] of 1.53 µM. It also gave a TGI [2] of 2.9 µM, a GI50 [3] of 2.74 µM and a TGI [3] of 9.9 µM. It also gave a GI50 [4] of 1.88 µM, a TGI [4] of 4.14 µM and a GI50 [5] of 0.951 µM. The TGI [5] was 8.38 µM, the GI50 [6] was 2.79 µM and the TGI [6] was > 100 µM. It also gave a GI50 [7] of 1.55 µM, a TGI [7] of 3.46 µM and a GI50 [8] of 2.27 µM. For the same compound, the TGI [8] was 5.85 µM, the GI50 [9] was 1.75 µM and the TGI [9] was 9.52 µM. The GI50 [10] was 1.64 µM and the TGI [10] was 3.43 µM.

COc1cc([C@H]2c3cc4c(cc3O[C@@]3(O)COC(=O)[C@@H]23)OCO4)cc(OC)c1OC was tested, and the TGI [1] was > 100 µM, the TGI [2] was > 100 µM and the TGI [3] was > 100 µM. The TGI [4] was > 100 µM, the TGI [5] was > 100 µM and the TGI [6] was > 100 µM. For the same compound, the TGI [7] was > 100 µM, the TGI [8] was > 100 µM and the TGI [9] was > 100 µM. The TGI [10] was > 100 µM.

COc1cc(O)c([C@@H]2C[C@H](CCc3ccc(O)cc3)O[C@H](c3ccc(O)cc3)C2)c(O)c1C(=O)/C=C/c1ccc(O)cc1 was tested, and the GI50 [1] was 2.28 µM, the TGI [1] was 4.97 µM and the GI50 [2] was 2.11 µM. It also gave a TGI [2] of 6.05 µM, a GI50 [3] of 5.53 µM and a TGI [3] of 25.5 µM. For the same compound, the GI50 [4] was 2.23 µM, the TGI [4] was 4.98 µM and the GI50 [5] was 2.45 µM. For the same compound, the TGI [5] was 6.88 µM, the GI50 [6] was 2.42 µM and the TGI [6] was 4.8 µM. For the same compound, the GI50 [7] was 2.38 µM, the TGI [7] was 5.92 µM and the GI50 [8] was 2.74 µM. It also gave a TGI [8] of 8.27 µM, a GI50 [9] of 2.86 µM and a TGI [9] of 8.22 µM. For the same compound, the GI50 [10] was 3.23 µM and the TGI [10] was 13.8 µM.

CCOC(=O)c1ccc(NC(=O)N2CC(C)OC(C)C2)cc1 (stereo not drawn) was tested, and the GI50 [1] was > 100 µM, the TGI [1] was > 100 µM and the GI50 [2] was > 100 µM. The TGI [2] was > 100 µM, the GI50 [3] was > 100 µM and the TGI [3] was > 100 µM. The GI50 [4] was > 100 µM, the TGI [4] was > 100 µM and the GI50 [5] was > 100 µM. The TGI [5] was > 100 µM, the GI50 [6] was > 100 µM and the TGI [6] was > 100 µM. For the same compound, the GI50 [7] was > 100 µM, the TGI [7] was > 100 µM and the GI50 [8] was > 100 µM. For the same compound, the TGI [8] was > 100 µM, the GI50 [9] was > 100 µM and the TGI [9] was > 100 µM. The GI50 [10] was > 100 µM and the TGI [10] was > 100 µM.
